From PMC12508063, “Chloroindazole based estrogen receptor β ligands with favorable pharmacokinetics promote functional remyelination and visual recovery” (Scientific Reports, 2025) come the findings set out here.

Usually Cmax stands for the peak of the concentration-time curve. By Tmax is commonly meant the time at which the peak concentration occurs.

The structures appear in SMILES notation.

The nature of data set [1]: Oral PK of K102 at 40 mg/kg in female dogs. In kind it is in vivo, beagle dog. The note with it: female dog, PO 40 mg/kg, mean.
Data set [2] concerns the target CYP2C9 (Homo sapiens, UniProt P11712). The data set is described as follows: CYP inhibition. The note with it: test compounds at 10 μM; substrate Diclofenac Sodium.

Sequence of CYP2C9 (P11712 whole entry): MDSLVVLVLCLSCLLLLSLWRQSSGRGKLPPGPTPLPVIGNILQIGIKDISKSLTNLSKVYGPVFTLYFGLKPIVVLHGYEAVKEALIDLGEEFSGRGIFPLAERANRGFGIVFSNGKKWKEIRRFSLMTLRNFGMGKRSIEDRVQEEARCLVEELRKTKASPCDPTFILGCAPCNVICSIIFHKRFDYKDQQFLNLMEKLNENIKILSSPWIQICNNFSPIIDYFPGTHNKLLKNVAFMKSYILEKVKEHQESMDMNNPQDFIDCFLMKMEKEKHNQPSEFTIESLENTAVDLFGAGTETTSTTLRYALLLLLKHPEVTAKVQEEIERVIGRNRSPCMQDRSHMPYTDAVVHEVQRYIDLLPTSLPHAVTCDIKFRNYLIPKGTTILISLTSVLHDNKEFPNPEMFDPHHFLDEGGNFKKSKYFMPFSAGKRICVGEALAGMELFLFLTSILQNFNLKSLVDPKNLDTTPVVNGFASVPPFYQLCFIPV

Turning to `Cc1cc(O)ccc1-n1nc2ccc(O)cc2c1Cl` [Compound K102, IndCl-o-Me], in data set [1], the AUCInf/D came out at 0.6 kg·ng·h/mL/mg, the AUClast came to 24.6 ng·h/mL, the Cmax was 31.7 ng/mL and the Tmax is 15 min. The “CYP Inhibition Percentage CYP2C9” value in data set [2] is 36.09%.
